Assay results as given in PubChem BioAssay (NCI).
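Dose response: 5 concentrations. Exposure: 48 h. Format: 96-well plates. Endpoint: linear interpolation; highest concentration if not reached. The concentration for 50% growth inhibition is given as GI50. TGI marks complete inhibition of growth.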

Key:
Assay in all cases: NCI tumour cell line growth inhibition, 48 h
[1] = tested on: OVCAR-8 ovarian
[2] = tested on: HCC-2998 colon
[3] = tested on: COLO 205 colon
[4] = tested on: SK-OV-3 ovarian
[5] = tested on: IGROV1 ovarian
[6] = tested on: EKVX NSCLC
[7] = tested on: SF-295 CNS
[8] = tested on: MALME-3M melanoma
[9] = tested on: HOP-62 NSCLC
[10] = tested on: TK-10 renal
[11] = tested on: ACHN renal
[12] = tested on: HOP-92 NSCLC

| SMILES | TGI [1] [µM] | TGI [2] [µM] | TGI [3] [µM] | TGI [4] [µM] | TGI [5] [µM] | TGI [6] [µM] | TGI [7] [µM] | TGI [8] [µM] | TGI [9] [µM] | TGI [10] [µM] | TGI [11] [µM] | GI50 [4] [µM] | GI50 [9] [µM] | GI50 [10] [µM] | TGI [12] [µM] | GI50 [1] [µM] | GI50 [3] [µM] | GI50 [6] [µM] | GI50 [8] [µM] | GI50 [11] [µM] |
| --- | --- | --- | --- | --- | --- | --- | --- | --- | --- | --- | --- | --- | --- | --- | --- | --- | --- | --- | --- | --- |
| COc1cc(N/N=C/C#N)cc(OC)c1OC | > 10 | > 10 | > 10 | > 10 | > 10 | > 10 | > 10 | > 10 | > 10 | > 10 | > 10 |  |  |  |  |  |  |  |  |  |
| CCOC(=O)Nc1cc2c(c(N)n1)N=C(c1ccccc1)[C@H](C)N2 | > 100 |  | < 0.0001 | 78.8 | > 100 | > 100 |  | 16.4 | 22.9 | 57.3 | 55 | < 0.0001 | < 0.0001 | 14.2 | 47.1 |  |  |  |  |  |
| O=C(O)CCSCc1ccc(I)cc1 | > 100 | > 100 | > 100 | > 100 | > 100 | > 100 | > 100 | > 100 | > 100 | > 100 | > 100 |  |  |  | > 100 |  |  |  |  |  |
| CCC1CN2CCC1CC2 (configuration not stated) | > 100 | > 100 | > 100 | > 100 | > 100 | > 100 | > 100 | > 100 | > 100 |  |  |  |  |  |  |  |  |  |  |  |
| O=C(N/C(=C\c1cccc([N+](=O)[O-])c1)c1nc2[nH]c(=S)[nH]c(=O)c2[nH]1)c1ccccc1 | > 100 | > 100 | > 100 | > 100 | > 100 | > 100 | > 100 | > 100 | > 100 |  | > 100 |  |  |  | > 100 |  |  |  |  |  |
| NC(=S)Nc1cc(Cl)ccc1Cl | > 100 | > 100 | > 100 | > 100 | > 100 | > 100 | > 100 | > 100 | > 100 | > 100 | > 100 |  |  |  | > 100 |  |  |  |  |  |
| CCCCCCCCCCCCCCCC(=O)OCC1CCCN2CCCCC12 (configuration not stated) | > 100 | > 100 | > 100 | > 100 |  | > 100 | > 100 | > 100 | > 100 | > 100 | > 100 |  |  |  | > 100 |  |  |  |  |  |
| C/C(=N\Oc1cc(Cl)ncn1)c1ccccn1 | > 100 | 72.1 | > 100 | > 100 | > 100 | > 100 | > 100 | > 100 | > 100 | > 100 | > 100 |  |  |  | 74.3 |  |  |  |  |  |
| CC[C@H](Nc1nc(N)nc(C)c1C#N)c1nc2cccc(NCc3ccc(C(=O)NO)cc3)c2c(=O)n1-c1ccccc1 | 6.83 |  | 5.31 | 5.03 |  | 6.84 |  | 4.13 | 6.22 | 6.88 | 4.67 | 2.05 | 2.35 | 2.02 |  | 2.19 | 2.05 | 2.1 | 1.63 | 1.94 |
| O=C(CCl)NC(Cc1ccc(F)cc1)C(=O)O (configuration not stated) | > 100 | > 100 | > 100 | > 100 | > 100 | > 100 | > 100 | > 100 | > 100 |  |  |  |  |  | > 100 |  |  |  |  |  |
